Like-named read-outs stand apart in the source and are kept apart here. Values belong to the compound of their own block, whether it stands above or below them.
What was measured:
[1] = test system: prostate VCaP cell line; experiment: Cell growth inhibition, Cell TiterGLO, 4 days; format: cell-based; settings: treated 4 days, read-out: VCaP cells (IC50 (nM))
[2] = molecular target: BRD2 BD1 (Homo sapiens (Human), UniProt P25440); experiment: FP competitive binding assay using Cpd. No. 350 as the probe
[3] = molecular target: T1, BRD2 BD2 (Homo sapiens (Human), UniProt P25440); experiment: as above
Procedure: (§6) Fluorescence Polarization (FP) competitive binding studies (see above) were carried out using the FAM labeled fluorescent probe Cpd. No. 350 to determine binding affinities of representative compounds to both BD1 and BD2 of BRD2, BRD3, and BRD4 proteins. Equilibrium dissociation constants (Id) values of Cpd. No. 350 to these six proteins were determined from protein saturation experiments by monitoring the total fluorescence polarization of mixtures composed with the fluorescent probe at a fixed concentration and proteins with increasing concentrations up to full saturation. Serial dilutions of testing protein were mixed with Cpd. No. 350 to a final volume of 200 μl in the assay buffer. […] Plates were incubated at room temperature for 30 minutes with gentle shaking to assure equilibrium. […] Kd values of Cpd.
(§7) The IC50 and Ki values of compounds were determined in a competitive binding experiment as described above. […] FP values were measured as described above. IC50 values were determined by nonlinear regression fitting of the competition curves.

[4] = molecular target: BRD3 BD1 (Homo sapiens (Human), UniProt Q15059); experiment: as above
Procedure: as §6, §7

[5] = molecular target: BRD3 BD2 (Homo sapiens (Human), UniProt Q15059); experiment: as above
Procedure: as §6, §7

[6] = molecular target: BRD4 BD1 (Homo sapiens (Human), UniProt O60885); experiment: as above
Procedure: as §6, §7

[7] = molecular target: T2, BRD4 BD2 (Homo sapiens (Human), UniProt O60885); experiment: as above
Procedure: as §6, §7

[8] = molecular target: T1, BRD2 BD2; experiment: FP competitive binding assay (BRD-1F probe); settings: for IC50: BRD-1F probe 5 nM, protein 200 nM; for Ki: BRD-1F probe, calculated from IC50
Procedure: (§1) The FAM labeled fluorescent probe (BRD-1F) was synthesized based on a known small-molecule BET bromodomain inhibitor. […] Final BRD-1F concentration was 5 nM. Plates were incubated at room temperature for 1-2 hours with gentle shaking to assure equilibrium.
(§2) Final probe concentration is 5 nM in all assays. […] FP values were measured as described above.

[9] = test system: MOLM-13; experiment: Cell growth inhibition, CellTiter-Glo, acute leukemia cell line; format: cell-based; settings: Homo sapiens, MOLM-13, 96 h, 4 days
Procedure: (§3) Cell growth inhibitory activity of representative BET bromodomain inhibitors was determined using CellTiter-Glo® Luminescent Cell Viability Assay. For leukemia cell lines MV-4-11 (ATCC, Manassas, Va.) and MOLM-13 (DSMZ, Germany), cells were seeded in 96-well white opaque cell culture plates at a density of 10,000 cells/well with serially diluted compounds and incubated at 37° C. in an atmosphere of 95% air and 5% CO2 for 4 days. Cell viability was determined using the CellTiter-Glo® Luminescent Cell Viability Assay Kit (Promega, Madison, Wis.) according to the manufacture's instruction. Briefly, a volume of CellTiter-Glo® Reagent equal to the volume of cell culture medium was added to each well, and then the plates were incubated at room temperature for 10-20 minutes. The luminescent signal was measured using a Tecan Infinite M1000 multimode microplate reader (Tecan, Morrisville, N.C.). The half maximal inhibitory concentration (IC50) was calculated using the GraphPad Prism 5 software (GraphPad Software, La Jolla, Calif.).

[10] = test system: MV-4-11; experiment: as above; format: cell-based; settings: Homo sapiens, MV4-11, 96 h, 4 days
Procedure: as §3

[11] = test system: leukemia MOLM-13 cell line; experiment: 4-day cell viability assay, CellTiter-Glo; format: cell-based; settings: Homo sapiens, MOLM-13, 96 h; 4 days; read-out: Cell Growth Inhibition (IC50 (nM)) MOLM-13 Cell Line (CellTiter-Glo assay)
Procedure: (§4) The effect of representative BET bromodomain inhibitors on cell viability was determined in a 4-day proliferation assay. Cells were maintained in the appropriate culture medium with 10% FBS at 37° C. and an atmosphere of 5% CO2. All the cell lines were used within three months of thawing fresh vials.
(§5) Cells were seeded in 96-well flat bottom (Corning COSTAR, Corning, N.Y., cat#3595) or white opaque cell culture plates (BD Falcon, cat#353296) at a density of 3,000-10,000 cells/well in 75 μl of culture medium. Compounds were serially diluted in the appropriate medium, and 75 μl of the diluted compounds were added to the appropriate wells of the cell plate. After the addition of compounds, the cells were incubated at 37° C. in an atmosphere of 5% CO2 for 4 days. Cell viability was determined using the CellTiter-Glo® Luminescent Cell Viability Assay Kit (Promega, Madison, Wis.) for MOLM-13 cells and WST (2-(2-methoxy-4-nitrophenyl)-3-(4-nitrophenyl)-5-(2,4-disulfophenyl)-2H-tetrazolium, monosodium salt) Cell Counting-8 Kit (Dojindo Molecular Technologies, Inc., Rockville, Md.) for MDA-MB-436 cells according to the manufacturers' instructions.
For the CellTiter-Glo assay, 100 μl of CellTiter-Glo® Reagent was added to each well, and then the plates were incubated at room temperature for 10-20 minutes. The luminescent signal was measured using a Tecan Infinite M1000 multimode microplate reader (Tecan, Morrisville, N.C.). The readings were normalized to the DMSO-treated cells and the IC50 was calculated by nonlinear regression (four parameters sigmoid fitted with variable slope, least squares fit, and no constraint) analysis using the GraphPad Prism 5 software.

[12] = molecular target: T2, BRD4 BD2; experiment: FP competitive binding assay (BRD-1F probe); settings: for IC50: BRD-1F probe 5 nM, protein 200 nM; for Ki: BRD-1F probe, calculated from IC50
Procedure: as §1, §2

[13] = test system: MV4;11; experiment: Cell growth inhibition in leukemia cell line; format: cell-based; settings: Homo sapiens, MV4-11, cell growth inhibition
[14] = test system: AML-2; experiment: Cell growth inhibition in leukemia cell line; format: cell-based
Procedure: as §4, §5

[15] = test system: K562; experiment: Cell growth inhibition in leukemia cell line; format: cell-based; settings: Homo sapiens
[16] = read-out: BRD2 BD1 Ki, FP, Cpd. No. 350 probe […]
[17] = read-out: BRD2 BD2 Ki, FP, Cpd. No. 350 probe […]
[18] = read-out: BRD3 BD1 Ki, FP, Cpd. No. 350 probe […]
[19] = read-out: BRD3 BD2 Ki, FP, Cpd. No. 350 probe […]
[20] = read-out: BRD4 BD1 Ki, FP, Cpd. No. 350 probe […]
[21] = read-out: BRD4 BD2 Ki, FP, Cpd. No. 350 probe […]

Sequence of BRD3 BD1 (Q15059 34-140): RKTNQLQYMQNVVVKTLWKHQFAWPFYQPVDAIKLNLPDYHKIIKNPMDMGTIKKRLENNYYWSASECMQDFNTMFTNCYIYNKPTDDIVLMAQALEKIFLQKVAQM
Sequence of BRD2 BD1 (P25440 74-180): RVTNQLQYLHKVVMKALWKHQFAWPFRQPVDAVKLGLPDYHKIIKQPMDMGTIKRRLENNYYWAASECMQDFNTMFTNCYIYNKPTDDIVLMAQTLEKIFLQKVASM
T1 sequence (P25440 344-453): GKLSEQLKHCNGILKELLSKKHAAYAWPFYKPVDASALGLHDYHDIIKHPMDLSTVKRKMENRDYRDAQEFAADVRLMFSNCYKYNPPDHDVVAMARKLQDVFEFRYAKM
Sequence of BRD3 BD2 (Q15059 306-415): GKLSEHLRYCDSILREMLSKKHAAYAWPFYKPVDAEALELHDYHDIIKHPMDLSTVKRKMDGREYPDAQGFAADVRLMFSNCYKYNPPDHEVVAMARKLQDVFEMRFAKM

- IC50 [9]: < 500 nM
- IC50 [10]: < 100 nM
Structure (SMILES): COc1cc2c(cc1-c1c(C)noc1C)[nH]c1ncnc(-c3c(C)n[nH]c3C)c12 [Cpd. No. 38]

- IC50 ([1]; Homo sapiens, VCaP, 96 h): 25 nM
Structure (SMILES): COc1cc2c(cc1-c1c(C)noc1C)[nH]c1nc(C)nc(-c3cc(NCCN(C)C)nc4ccccc34)c12 [Cpd. No. 101]

- IC50 ([1]; Homo sapiens, VCaP, 96 h): 20 nM
Structure (SMILES): COc1cc2c(cc1-c1c(C)noc1C)[nH]c1nc(C)nc(-c3ccnc4ccc(Cl)cc34)c12 [Cpd. No. 90]

- IC50 ([1]; Homo sapiens, VCaP, 96 h): 500 nM
Structure (SMILES): CCNC(=O)C[C@@H]1N=C(c2ccc(Cl)cc2)c2cc(OC)ccc2-n2c(C)nnc21 [I-BET762, reference compound]

- IC50 [8]: 3.2 µM
- Ki [8]: 1.2 µM
- IC50 [12]: 3.67 µM
- Ki [12]: 0.775 µM
Structure (SMILES): COc1cc2c(cc1-c1c(C)n[nH]c1C)[nH]c1ccnc(-c3c(C)n[nH]c3C)c12 [Cpd. No. 34, 1,7-bis(3,5-dimethyl-1H-pyrazol-4-yl)-8-methoxy-5H-pyrido[4,3-b]indole]

Continued, compound first:

Structure (SMILES): COc1cc2c(cc1-c1c(C)noc1C)[nH]c1nc(C)nc(-c3ccnc4ccccc34)c12 [Cpd. No. 73]
- IC50 ([1]; Homo sapiens, VCaP, 96 h): 156 nM
- Ki [2, 16]: 0.0155 µM
- Ki [3, 17]: 0.0087 µM
- Ki [4, 18]: 0.0102 µM
- Ki [5, 19]: 0.0026 µM
- Ki [6, 20]: 0.0353 µM
- Ki [7, 21]: 0.0078 µM

Structure (SMILES): COc1cc2c(cc1-c1c(C)noc1C)[nH]c1ccnc(-c3c(C)n[nH]c3C)c12
- IC50 [8]: 0.0928 ± 0.0308 µM
- Ki [8]: < 0.01 µM
- IC50 [9]: < 500 nM
- IC50 [10]: < 100 nM
- IC50 [11]: 311 ± 12 nM
- Ki [2, 16]: 0.0483 ± 0.0013 µM
- Ki [3, 17]: 0.0577 ± 0.0081 µM

Structure (SMILES): COc1cc2c(cc1-c1c(C)noc1C)[nH]c1ccnc(-c3cccnc3)c12
- IC50 [8]: 0.349 µM
- Ki [8]: 0.0574 µM
- IC50 [12]: 0.873 µM
- Ki [12]: 0.232 µM

Structure (SMILES): Cc1sc2c(c1C)C(c1ccc(Cl)cc1)=N[C@@H](CC(=O)OC(C)(C)C)c1nnc(C)n1-2 [JQ1, reference compound]
- IC50 [1]: 48 nM

Structure (SMILES): COc1cc2c(cc1-c1c(C)noc1C)ncc1[nH]c(=O)n([C@H](C)c3ccccn3)c12 [I-BET151, reference compound]
- IC50 ([1]; Homo sapiens, VCaP, 96 h): 862 nM

Structure (SMILES): COc1cc2c(cc1-c1c(C)noc1C)[nH]c1ccnc(-c3c(C4CC4)n[nH]c3C)c12 [Cpd. No. 24, 4-(1-(3-cyclopropyl-5-methyl-1H-pyrazol-4-yl)-8-methoxy-5H-pyrido[4,3-b]indol-7-yl)-3,5-dimethylisoxazole]
- IC50 [11]: 280 ± 35 nM
- IC50 [13]: 83 ± 41 nM
- IC50 [14]: 173 ± 89 nM
- IC50 [15]: > 2000 nM
- Ki [2]: 0.0584 ± 0.001 µM
- Ki [3]: 0.0921 ± 0.0033 µM
- Ki [4]: 0.0382 ± 0.001 µM
- Ki [5]: 0.0509 ± 0.0058 µM
- Ki [6]: 0.116 ± 0.005 µM
- Ki [7]: 0.134 ± 0.042 µM

Structure (SMILES): COc1cc2c(cc1-c1c(C)noc1C)[nH]c1ccncc12 [Cpd. No. 1, 4-(8-methoxy-5H-pyrido[4,3-b]indol-7-yl)-3,5-dimethylisoxazole]
- IC50 [11]: 550 ± 303 nM
- IC50 [13]: 178 ± 114 nM
- IC50 [14]: 148 ± 64 nM
- IC50 [15]: > 2000 nM
- Ki [2]: 0.0316 ± 0.0082 µM
- Ki [3]: 0.0345 ± 0.0021 µM
- Ki [4]: 0.0147 ± 0.001 µM
- Ki [5]: 0.0143 ± 0.0005 µM
- Ki [6]: 0.0478 ± 0.001 µM
- Ki [7]: 0.0701 ± 0.002 µM

Structure (SMILES): COc1cc2c(cc1-c1c(C)noc1C)[nH]c1ccnc(-c3ccccc3)c12
- IC50 [8]: 0.255 ± 0.114 µM
- Ki [8]: 0.0349 ± 0.0212 µM
- IC50 [12]: 0.514 µM
- Ki [12]: 0.0834 µM

Structure (SMILES): COc1cc2c(cc1-c1c(C)noc1C)[nH]c1ccnc(-c3cn[nH]c3)c12
- IC50 [8]: 0.286 ± 0.125 µM
- Ki [8]: 0.0423 ± 0.032 µM
- IC50 [12]: 0.608 ± 0.244 µM
- Ki [12]: 0.114 ± 0.087 µM
- IC50 [11]: 1040 ± 158 nM
- IC50 [13]: 1070 ± 195 nM
- IC50 [14]: 217 ± 61 nM
- IC50 [15]: > 2000 nM
- Ki [2, 16]: 0.138 ± 0.008 µM
- Ki [3, 17]: 0.0897 ± 0.0064 µM
- Ki [4, 18]: 0.151 ± 0.02 µM
- Ki [5, 19]: 0.0487 ± 0.0033 µM
- Ki [6, 20]: 0.247 ± 0.029 µM
- Ki [7, 21]: 0.201 ± 0.005 µM

Structure (SMILES): COc1cc2c(cc1-c1c(C)noc1C)[nH]c1ccncc12 [RX-7]
- IC50 [8]: 1.35 ± 0.212 µM
- Ki [8]: 0.366 ± 0.082 µM
- IC50 [12]: 2.9 µM
- Ki [12]: 0.85 µM
- Ki [2, 16]: 0.65 ± 0.125 µM
- Ki [3, 17]: 0.498 ± 0.011 µM
- Ki [4, 18]: 0.73 ± 0.146 µM
- Ki [5, 19]: 0.241 ± 0.006 µM
- Ki [6, 20]: 1.64 ± 0.071 µM
- Ki [7, 21]: 0.824 ± 0.025 µM
